Experimental data published in article PMC8839821, “Potential Mechanisms Involved in the Protective Effect of Dicaffeoylquinic Acids from Artemisia annua L. Leaves against Diabetes and Its Complications” (Molecules, 2022).

How the values were obtained:
[1] = system: human skin fibroblast (HSF) cells; assay: Scratch wound healing assay; format: cell-based; details: for effect on scratch wound healing (in words): tested at 10, 100, 1000 µg/mL; for time to complete wound healing: control healed in 72 h
Method: (§1) Human Skin Fibroblasts (HSF) cell line was obtained from Nawah Scientific Inc. (Mokatam, Cairo, Egypt). Cells were kept in DMEM media with […] of streptomycin, 100 units/mL of penicillin and 10% of heat-inactivated fetal bovine serum in humidified, 5% (v/v) CO2 atmosphere at 37 °C.
The wound healing assay was conducted to evaluate the effect of different concentrations of the polar fraction and isolated compounds from Artemisia Annua on the migration ability of HSF cell line using the scratch wound healing assay as previously described. In a coated 12-well plates, cells were seeded at density of 2 × 10^5/well in 5% FBS-DMEM and cultured overnight at 37 °C and 5% CO2. On the following day, horizontal scratches were made into the confluent monolayer and the plates were washed with PBS and treated with fresh media containing the combined polar extract and the isolated compounds in concentrations of 10, 100, 1000 µg/mL. Control wells were done using only plain medium. The plates were incubated at 37 °C and 5% CO2 and images were captured using an inverted microscope at 24, 48 and 72 h time intervals. The acquired images were analyzed by MII ImageView software version 3.7. Experiments were performed in triplicates. Wound width was calculated as the average distance between the edges of the scratches. As cell migration enhanced, the wound width diminishes.

[2] = Ferric Reducing Antioxidant Power (FRAP) assay; details: ART-CQ 50 µg/mL, isolated compounds 25 µg/mL
Method: The DetectX® Ferric Reducing Antioxidant Power (FRAP™) Detection Kit (Arbor assays, Ann Arbor, MI, USA) was used to estimate the antioxidant and ferric reducing activity of the polar fraction of A. annua and the isolated compounds in accordance with the method of Benzie and Strain (1996). ART-CQ was utilized in a concentration of (50 µg/mL) while the isolated compounds were used in a concentration of (25 µg/mL). Ferric chloride standard and ascorbic acid control were used in the assay and the FRAP values were estimated and presented as µM FeCl2.

[3] = DPPH radical scavenging assay; details: mean ± SEM of two replicates
Method: 2,2-diphenyl-1-picrylhydrazil (DPPH) Radical Scavenging Assay was exploited to assess the free radical scavenging potential of ART-CQ and the pure compounds according to Motaal et al., 2011 [52]. Different concentrations of ART-CQ (8, 16, 48, 64 µg/mL) and the isolated compounds (2, 4, 12, 16 µg/mL) were used. Ascorbic acid was used as the standard positive control and water was used in place of samples as a blank. The IC50 value for the test samples and standard was evaluated.

[4] = target: T1, Dipeptidyl Peptidase IV (DPPIV) enzyme (Homo sapiens, UniProt P27487); assay: Dipeptidyl peptidase IV (DPPIV) inhibition assay (fluorometric inhibitor screening kit); format: biochemical; details: mean ± SEM of two replicates; read-out: DPPIV inhibitory activity IC50 (converted)
T1 construct: purchased Abnova
T1 sequence (P27487 whole entry, species assumed): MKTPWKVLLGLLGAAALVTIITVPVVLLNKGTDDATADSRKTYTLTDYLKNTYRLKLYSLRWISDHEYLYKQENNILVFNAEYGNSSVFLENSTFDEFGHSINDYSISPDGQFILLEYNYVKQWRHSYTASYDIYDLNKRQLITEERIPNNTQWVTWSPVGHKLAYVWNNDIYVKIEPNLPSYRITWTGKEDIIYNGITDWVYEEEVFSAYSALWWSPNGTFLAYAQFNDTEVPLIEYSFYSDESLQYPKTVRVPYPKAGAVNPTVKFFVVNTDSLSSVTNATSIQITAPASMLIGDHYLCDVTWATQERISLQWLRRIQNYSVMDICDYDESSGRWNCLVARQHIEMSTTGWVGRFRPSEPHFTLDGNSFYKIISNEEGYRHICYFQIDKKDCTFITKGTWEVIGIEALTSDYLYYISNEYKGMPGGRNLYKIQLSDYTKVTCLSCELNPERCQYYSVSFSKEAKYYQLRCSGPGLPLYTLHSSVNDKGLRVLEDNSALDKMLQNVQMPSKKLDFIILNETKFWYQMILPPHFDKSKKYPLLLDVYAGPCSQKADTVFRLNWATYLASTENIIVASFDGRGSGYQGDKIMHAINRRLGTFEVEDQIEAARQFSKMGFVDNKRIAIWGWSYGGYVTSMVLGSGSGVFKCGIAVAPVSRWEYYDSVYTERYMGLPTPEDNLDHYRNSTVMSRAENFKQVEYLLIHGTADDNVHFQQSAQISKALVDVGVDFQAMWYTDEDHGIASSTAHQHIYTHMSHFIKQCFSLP
Method: The dipeptidyl peptidase IV (DPPIV) inhibition effectiveness of the polar fraction of Artemisia annua (ART-CQ) and the isolated compounds was determined fluorometrically by using the DPPIV Inhibitor Screening Kit (Abnova, Taipei, Taiwan) following the manufacturer’s protocol. […] Then the enzyme substrate solution was added, and the […] was measured at Ex/Em = 360/460 nm. The plate was reincubated for 30 min at 37 °C and the […] was recorded again. Vidagliptin was used as the reference standard. The difference between the two readings was estimated and the IC50 was determined.

[5] = target: T2, α-amylase enzyme (Sus scrofa, UniProt P00690); assay: α-Amylase inhibition assay (CNPG3 hydrolysis, kinetic); format: biochemical, porcine pancreas
T2 construct: Alpha-amylase (porcine pancreas); purchased Sigma-Aldrich; host or cells: porcine pancreas
T2 sequence (P00690 16-511): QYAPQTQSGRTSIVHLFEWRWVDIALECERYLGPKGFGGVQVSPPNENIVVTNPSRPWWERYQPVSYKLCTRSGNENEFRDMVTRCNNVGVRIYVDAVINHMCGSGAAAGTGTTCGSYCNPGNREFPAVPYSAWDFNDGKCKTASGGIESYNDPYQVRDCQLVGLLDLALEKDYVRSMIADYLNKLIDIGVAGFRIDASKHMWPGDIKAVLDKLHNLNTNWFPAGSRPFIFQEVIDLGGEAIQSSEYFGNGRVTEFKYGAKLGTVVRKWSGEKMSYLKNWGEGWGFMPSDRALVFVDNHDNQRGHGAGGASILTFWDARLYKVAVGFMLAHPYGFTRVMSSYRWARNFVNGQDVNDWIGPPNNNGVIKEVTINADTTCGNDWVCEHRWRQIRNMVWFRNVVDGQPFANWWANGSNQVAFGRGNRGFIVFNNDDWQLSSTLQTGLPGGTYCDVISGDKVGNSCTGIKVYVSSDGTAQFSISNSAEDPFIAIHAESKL
Method: Alpha-amylase (porcine pancreas), 2-chloro-4-nitrophenyl-D-maltotrioside (CNPG3) and tetramethylsilane were from Sigma-Aldrich (St. Louis, MO, USA) while the remaining chemicals were from UFC Biotechnology. Spectrophotometric readings were performed using the microplate reader (Anthos Zenyth 200RT, Cambridge, UK). ^1H-NMR (400 MHz) analysis was carried out using Bruker NMR Spectrometer (Bruker, Yokohama, Japan). Spectra were recorded in CD3OD or DMSO-d6 with tetramethylsilane being employed as an internal standard, and chemical shift values were expressed in ppm.
The inhibitory effect of the polar fraction (ART-CQ) and isolated compounds from Artemisia Annua on the activity of α-amylase enzyme was assessed kinetically as previously described. […] The change in absorbance per min is proportional to the enzyme activity. Various concentrations of ART-CQ (10, 50, 100, 200 µg/mL) and isolated compounds (5, 20, 50, 100 µg/mL) were preincubated with the enzyme for 15 min at 37 °C before the addition of CNPG3.

[6] = system: human skin fibroblast (HSF) cells; assay: In vitro cell viability / cytotoxicity (SRB assay); format: cell-based; details: 72 h incubation, highest tested concentration 100 µg/mL
Method: as §1
Effect of the alcoholic extract and the isolated compounds on cell viability was evaluated to assess their safety utilizing SRB assay. An aliquot of 100 µL cell suspension (5 × 10^3 cells) was incubated with 100 μL media containing the test samples at concentrations (0.01, 0.1, 1, 10, 100 µg/mL) for 72 h. Media was removed and 150 μL of 10% TCA was added for fixing the cells that was further incubated at 4 °C for 1h. Cells were then washed with distilled water and 70 μL 0.4% SRB solution was added, and plates were placed in dark for 10 min. Plates were then washed with 1% acetic acid and left to dry overnight. 150 μL of 10 mM TRIS was then added and the absorbance was measured at 540 nm using a BMG LABTECH®-FLUOstar Omega microplate reader (Ortenberg, Germany). Experiments were done in triplicates and the IC50 was calculated.

[7] = target: α-glucosidase; assay: α-Glucosidase inhibition assay (inhibitor screening kit); format: biochemical; details: mean ± SEM of two replicates
Method: The in vitro α-glucosidase inhibitory potential of ART-CQ and its isolated compounds was evaluated using the α-Glucosidase Inhibitor Screening Kit (Biovision, Milpitas, CA, USA). […] After incubation, 20 µL of the α-Glucosidase Substrate in buffer was added and the absorbance was measured kinetically at 410 nm for 60 min. The polar fraction was tested in concentrations (10, 50, 100, 200 µg/mL) while the concentrations of the isolated compounds were (5, 20, 50, 100 µg/mL).
The change in absorbance is directly proportional to enzyme activity and the presence of enzyme inhibitor reduces the formation of the end product with the resultant decrease in absorbance.

[8] = target: aldose reductase enzyme (Homo sapiens, UniProt P15121); assay: Aldose reductase inhibition assay (NADPH decrease at 340 nm, screening kit)
Method: Aldose reductase inhibitory activity was determined kinetically by measuring the decrease in the absorption of NADPH at 340 nm in a reaction mixture containing, in addition to NADPH, the enzyme, DL-glyceraldehyde and the samples [50]. This was accomplished using the Aldose Reductase Inhibitor Screening Kit (Biovision, Milpitas, CA, USA), in accordance with the manufacturer’s instructions. […] Then 60 μL of NADPH and 90 μL of enzyme solution were added and the plate was incubated in dark for 20 min at 37 °C. Subsequently, 40 μL of DL-glyceraldehyde was pipetted and the absorbance was determined at 340 nm at 37 °C for 90 min.

| SMILES | effect on scratch wound healing (in words) [1] | FRAP value relative to that of ascorbic acid [2] | DPPH free radical scavenging, concentration for 50% scavenging (IC50) [3] [µg/mL] | IC50 [4] [µM] | α-amylase inhibitory effect (in words) [5] | IC50 [6] [µg/mL] | α-glucosidase inhibitory activity IC50 [7] [µg/mL] | wound width as % of the original wound width at 24 h ([1]; 10 µg/mL, 24 h, control 56%) [%] | time to complete wound healing ([1]; 10 µg/mL) [h] | wound width as % of the original wound width at 48 h ([1]; 10 µg/mL, 48 h, control 37%) [%] | IC50 [8] [µM] | IC50 ([5]; mean ± SEM of two replicates) [µM] |
| --- | --- | --- | --- | --- | --- | --- | --- | --- | --- | --- | --- | --- |
| O=C(C=Cc1ccc(O)c(O)c1)OC1CC(O)(C(=O)O)CC(OC(=O)C=Cc2ccc(O)c(O)c2)C1O (stereo not drawn) [Compound 1, 3,5-dicaffeoylquinic acid] | inhibited cell migration and wound healing | about 8 times that of the ascorbic acid | 30.94 ± 4.61 | 0.436 | no α-amylase inhibitory effect | > 100 | 157.13 ± 6.82 |  |  |  |  |  |
| O=C1O[C@H]([C@@H](O)CO)C(O)=C1O [ascorbic acid, reference compound] |  |  | 5.50 ± 0.30 |  |  |  |  |  |  |  |  |  |
| O=C(C=Cc1ccc(O)c(O)c1)OC1CC(O)(C(=O)O)CC(O)C1OC(=O)C=Cc1ccc(O)c(O)c1 (stereo not drawn) [Compound 2, 4,5-dicaffeoylquinic acid] | improved the wound healing |  | 14.94 ± 0.60 | 4.4 |  | > 100 |  | 40 | 48 |  |  |  |
| COC(=O)C1(O)CC(O)C(OC(=O)C=Cc2ccc(O)c(O)c2)C(OC(=O)C=Cc2ccc(O)c(O)c2)C1 (stereo not drawn) [Compound 3, 3,4-dicaffeoylquinic acid methyl ester] | improved the wound healing | more than 30 times that of the ascorbic acid | 7.78 ± 0.24 | 1.08 |  | > 100 | 250.42 ± 8.44 |  | 72 | 23 | 16.8 | 2.85 |
